ChEMBL document CHEMBL1151327, “Cytotoxicity of curcuminoids and some novel compounds from Curcuma zedoaria” (1998)
In brackets after ≈: the same amount, converted by molar mass. Activity calls are given as the source filed them. No cut-off for these calls is given here.

Assays:
OVCAR-3 [1] = experiment: Cytotoxicity against human OVCAR-3 upto 20 ug/mL after 48 hrs; type: functional, cell-based
OVCAR-3 [2] = experiment: Cytotoxicity against human OVCAR-3 after 48 hrs; type: functional; conditions: OVCAR-3, 48 h, read-out: CD50 (the source's name)

Structure (SMILES)	Activity (OVCAR-3 [1])	CC50 (OVCAR-3 [2]) [µg/mL]
C=C(C)[C@@H]1CC[C@](C)(O)[C@H]2CC[C@](C)(O)[C@H]2C1	inactive	–
Cc1cc(C(=O)O)cc2c1CCC2C (stereo unspecified)	inactive	–
Cc1coc2c1C(=O)[C@@H]1[C@@](C)(C2)[C@H](O)CC[C@@]1(C)O	inactive	–
O=C(/C=C/c1ccc(O)cc1)CC(=O)/C=C/c1ccc(O)cc1 [BISDEMETHOXYCURCUMIN]	–	3.1 (≈ 10.1 µM)
COc1cc(/C=C/C(=O)CC(=O)/C=C/c2ccc(O)c(OC)c2)ccc1O [CURCUMIN]	–	4.4 (≈ 11.9 µM)
COc1cc(/C=C/C(O)=C/C(=O)/C=C/c2ccc(O)cc2)ccc1O [DEMETHOXYCURCUMIN]	–	3.8 (≈ 11.2 µM)
